Like-named read-outs stand apart in the source and are kept apart here.
Test system: 284 cell lines
Assay: cells
Description: A screen of 284 cell lines to assess the antiproliferative effect of EHMT2 inhibition was conducted by treating cell lines in 384-well format with a half-log step dilutions of Compound 205 over 10 concentrations with a maximum concentration of 0.1% v/v DMSO. Cells were plated on Day 0 and treated with compound on Day 1. Culture medium was replaced on day 7 and cells redosed. After 10-day incubation, cells were fixed and stained with nuclear dye. Automated fluorescence microscopy was carried out using a Molecular Devices ImageXpress Micro XL high-content imager, and images were collected with a 4× objective. 16-bit TIFF images were acquired and analyzed with MetaXpress 5.1.0.41 software. Cell proliferation was measured by the fluorescence intensity of the incorporated nuclear dye. Cell count IC50 is the test compound concentration at 50% of maximal response of the untreated control.

Measured: IC50

CNc1cc(C)nc(Nc2ccc(OC)c(OCCCN3CCCC3)c2)n1 [Compound 205]
< 0.01 µM: Homo sapiens, SCC-9, read-out: Cell Count IC50, SCC-9, Head and Neck | Homo sapiens, SCC-25, read-out: Cell Count IC50, SCC-25, Head and Neck
0.1 to 1 µM: Homo sapiens, NCI-H661, read-out: Cell Count IC50, NCI-H661, Lung, NSCLC | Homo sapiens, RPMI-6666, read-out: Cell Count IC50, RPMI 6666, Hematopoietic, Lymphoma | Homo sapiens, SAOS-2, read-out: Cell Count IC50, SaOS2, Bone, Osteosarcoma | Homo sapiens, SU-DHL-4, read-out: Cell Count IC50, SU-DHL-4, Hematopoietic, Lymphoma | Homo sapiens, SW684, read-out: Cell Count IC50, SW684, Soft & Connective Tissue, Sarcoma | Homo sapiens, SW1463, read-out: Cell Count IC50, SW1463, Colon | Homo sapiens, TCC-SUP, read-out: Cell Count IC50, TCCSUP, Bladder | Homo sapiens, U-118-MG, read-out: Cell Count IC50, U-118 MG, Central Nervous System, Glioma | Homo sapiens, WM 266-4, read-out: Cell Count IC50, WM-266-4, Skin, Melanoma | OCUG-1, read-out: Cell Count IC50, OCUG-1, Liver | read-out: Cell Count IC50, BC-1, Hematopoietic, Lymphoma | read-out: Cell Count IC50, HOS, Bone, Osteosarcoma | read-out: Cell Count IC50, MT-3, Colon | read-out: Cell Count IC50, TE 125.T, Soft & Connective Tissue, Sarcoma
1 to 10 µM: Homo sapiens, NCI-H747, read-out: Cell Count IC50, NCI-H747, Colon | Homo sapiens, NTERA-2-cl-D1, read-out: Cell Count IC50, NTERA-2 cl.D1, Testis | Homo sapiens, PANC-1, read-out: Cell Count IC50, PANC-1, Pancreas | Homo sapiens, PSN1, read-out: Cell Count IC50, PSN-1, Pancreas | Homo sapiens, RKOE6, read-out: Cell Count IC50, RKOE6, Colon | Homo sapiens, RPMI-7951, read-out: Cell Count IC50, RPMI-7951, Skin, Melanoma | Homo sapiens, RPMI-8226, read-out: Cell Count IC50, RPMI 8226, Hematopoietic, Myeloma | Homo sapiens, RS4-11, read-out: Cell Count IC50, RS4;11, Hematopoietic, Leukemia | Homo sapiens, Ramos, read-out: Cell Count IC50, Ramos (RA 1), Hematopoietic, Lymphoma | Homo sapiens, SCaBER, read-out: Cell Count IC50, SCaBER, Bladder | Homo sapiens, SJRH30, read-out: Cell Count IC50, SJRH30, Soft & Connective Tissue, Sarcoma | Homo sapiens, SJSA-1, read-out: Cell Count IC50, SJSA1, Bone, Osteosarcoma | Homo sapiens, SK-BR-3, read-out: Cell Count IC50, SK-BR-3, Breast | Homo sapiens, SK-MEL3, read-out: Cell Count IC50, SK-MEL-3, Skin, Melanoma | Homo sapiens, SK-MEL-1, read-out: Cell Count IC50, SK-MEL-1, Skin, Melanoma | Homo sapiens, SK-MEL-28, read-out: Cell Count IC50, SK-MEL-28, Skin, Melanoma | Homo sapiens, SK-MES-1, read-out: Cell Count IC50, SKMES1, Lung, NSCLC | Homo sapiens, SK-N-AS, read-out: Cell Count IC50, SK-N-AS, Central Nervous System, Neuroblastoma | Homo sapiens, SNB-19, read-out: Cell Count IC50, SNB-19, Central Nervous System, Glioma | Homo sapiens, SNU-5, read-out: Cell Count IC50, SNU-5, Stomach | Homo sapiens, SNU-16, read-out: Cell Count IC50, SNU-16, Stomach | Homo sapiens, SNU-423, read-out: Cell Count IC50, SNU-423, Liver | Homo sapiens, SNU-C2B, read-out: Cell Count IC50, SNU-C2B, Colon | Homo sapiens, ST486, read-out: Cell Count IC50, ST486, Hematopoietic, Lymphoma | Homo sapiens, SU-DHL10, read-out: Cell Count IC50, SU-DHL-10, Hematopoietic, Lymphoma | Homo sapiens, SU-DHL-8, read-out: Cell Count IC50, SU-DHL-8, Hematopoietic, Lymphoma | Homo sapiens, SUP-T1, read-out: Cell Count IC50, SUP-T1, Hematopoietic, Lymphoma | Homo sapiens, SW48, read-out: Cell Count IC50, SW48, Colon | Homo sapiens, SW480, read-out: Cell Count IC50, SW480, Colon | Homo sapiens, SW837, read-out: Cell Count IC50, SW837, Colon | Homo sapiens, SW872, read-out: Cell Count IC50, SW872, Soft & Connective Tissue, Sarcoma | Homo sapiens, SW900, read-out: Cell Count IC50, SW900, Lung, SCLC | Homo sapiens, SW1088, read-out: Cell Count IC50, SW1088, Central Nervous System, Glioma | Homo sapiens, SW1417, read-out: Cell Count IC50, SW1417, Colon | Homo sapiens, SW1783, read-out: Cell Count IC50, SW1783, Central Nervous System, Glioma | Homo sapiens, SW-403, read-out: Cell Count IC50, SW403, Colon | Homo sapiens, SW-620, read-out: Cell Count IC50, SW620, Colon | Homo sapiens, SiHa, read-out: Cell Count IC50, SiHa, Female GU, Cervix | Homo sapiens, THP-1, read-out: Cell Count IC50, Thp 1, Hematopoietic, Leukemia | Homo sapiens, U2OS, read-out: Cell Count IC50, U2OS, Bone, Osteosarcoma | Homo sapiens, U138-MG, read-out: Cell Count IC50, U-138MG, Central Nervous System, Glioma | Homo sapiens, U-87 MG, read-out: Cell Count IC50, U-87 MG, Central Nervous System, Glioma | Homo sapiens, UMUC3, read-out: Cell Count IC50, UM-UC-3, Bladder | Homo sapiens, WiDr, read-out: Cell Count IC50, WiDr, Colon | Hs 445, read-out: Cell Count IC50, Hs 445, Hematopoietic, Lymphoma | KHOS-240S, read-out: Cell Count IC50, KHOS-240S, Bone, Osteosarcoma | MS751, read-out: Cell Count IC50, MS751, Female GU, Cervix | OE21, read-out: Cell Count IC50, OE21, Head and Neck | RKOAS451, read-out: Cell Count IC50, RKO-AS45-1, Colon | SKO-007, read-out: Cell Count IC50, SKO-007, Hematopoietic, Myeloma | TE 381.T, read-out: Cell Count IC50, TE 381.T, Soft & Connective Tissue, Sarcoma | read-out: Cell Count IC50, A388, Skin, Head and Neck | read-out: Cell Count IC50, AGS, Stomach | read-out: Cell Count IC50, AUS65, Breast | read-out: Cell Count IC50, C32, Skin, Melanoma | read-out: Cell Count IC50, DK-MG, Central Nervous System, Glioma | read-out: Cell Count IC50, EB2, Hematopoietic, Lymphoma | read-out: Cell Count IC50, EM-2, Hematopoietic, Leukemia | read-out: Cell Count IC50, HLF, Liver | read-out: Cell Count IC50, HT, Hematopoietic, Lymphoma | read-out: Cell Count IC50, Hs 611.T, Hematopoietic, Lymphoma | read-out: Cell Count IC50, Hs 688(A).T, Skin, Melanoma | read-out: Cell Count IC50, Hs 821.T, Soft & Connective Tissue, Sarcoma | read-out: Cell Count IC50, Hs 936.T(C1), Skin, Melanoma | read-out: Cell Count IC50, J82, Bladder | read-out: Cell Count IC50, NAMALWA, Hematopoietic, Lymphoma | read-out: Cell Count IC50, PA-1, Female GU, Ovary | read-out: Cell Count IC50, RD, Soft & Connective Tissue, Sarcoma | read-out: Cell Count IC50, RKO, Colon | read-out: Cell Count IC50, SH-4, Skin, Melanoma | read-out: Cell Count IC50, SK-PN-DW, Soft & Connective Tissue, Sarcoma | read-out: Cell Count IC50, SR, Hematopoietic, Lymphoma | read-out: Cell Count IC50, TF-1, Hematopoietic, Leukemia | read-out: Cell Count IC50, TT, Endocrine, Thyroid | read-out: Cell Count IC50, TUR, Hematopoietic, Lymphoma | read-out: Cell Count IC50, U266B1, Hematopoietic, Myeloma
> 10 µM: Homo sapiens, NCI-H508, read-out: Cell Count IC50, NCI-H508, Colon | Homo sapiens, NCI-H520, read-out: Cell Count IC50, NCI-H520, Lung, NSCLC | Homo sapiens, NCI-H596, read-out: Cell Count IC50, NCI-H596, Lung, NSCLC | Homo sapiens, OE19, read-out: Cell Count IC50, OE19, Head and Neck | Homo sapiens, OE33, read-out: Cell Count IC50, OE33, Head and Neck | Homo sapiens, OVCAR-3, read-out: Cell Count IC50, OVCAR3, Female GU, Ovary | Homo sapiens, PFSK-1, read-out: Cell Count IC50, PFSK-1, Central Nervous System, Glioma | Homo sapiens, RL95-2, read-out: Cell Count IC50, RL95-2, Female GU, Uterus | Homo sapiens, Raji, read-out: Cell Count IC50, Raji, Hematopoietic, Lymphoma | Homo sapiens, SCC-4, read-out: Cell Count IC50, SCC-4, Head and Neck | Homo sapiens, SHP77, read-out: Cell Count IC50, SHP-77, Lung, SCLC | Homo sapiens, SK-LMS-1, read-out: Cell Count IC50, SK-LMS-1, Soft & Connective Tissue, Sarcoma | Homo sapiens, SK-N-FI, read-out: Cell Count IC50, SK-N-FI, Central Nervous System, Neuroblastoma | Homo sapiens, SK-NEP-1, read-out: Cell Count IC50, SK-NEP-1, Kidney | Homo sapiens, SK-OV-3, read-out: Cell Count IC50, SKOV3, Female GU, Ovary | Homo sapiens, SK-UT-1, read-out: Cell Count IC50, SK-UT-1, Soft & Connective Tissue, Sarcoma | Homo sapiens, SNU1, read-out: Cell Count IC50, SNU-1, Stomach | Homo sapiens, SU.86.86, read-out: Cell Count IC50, SU.86.86, Pancreas | Homo sapiens, SW13, read-out: Cell Count IC50, SW-13, Endocrine, Adrenal gland | Homo sapiens, SW948, read-out: Cell Count IC50, SW948, Colon | Homo sapiens, SW 954, read-out: Cell Count IC50, SW954, Female GU, Vulva | Homo sapiens, SW 962, read-out: Cell Count IC50, SW962, Female GU, Vulva | Homo sapiens, SW982, read-out: Cell Count IC50, SW982, Soft & Connective Tissue, Sarcoma | Homo sapiens, SW1353, read-out: Cell Count IC50, SW1353, Bone, Osteosarcoma | Homo sapiens, T47D, read-out: Cell Count IC50, T47D, Breast | Homo sapiens, T98G, read-out: Cell Count IC50, T98G, Central Nervous System, Glioma | Homo sapiens, YAPC, read-out: Cell Count IC50, YAPC, Pancreas | Homo sapiens, ZR-75-1, read-out: Cell Count IC50, ZR-75-1, Breast | Hs766T, read-out: Cell Count IC50, Hs 766T, Pancreas | KPL-1, read-out: Cell Count IC50, KPL-1, Breast | read-out: Cell Count IC50, 5637, Bladder | read-out: Cell Count IC50, A7, Skin, Melanoma | read-out: Cell Count IC50, EB-3, Hematopoietic, Lymphoma | read-out: Cell Count IC50, H4, Central Nervous System, Glioma | read-out: Cell Count IC50, HLE, Liver | read-out: Cell Count IC50, HT-3, Female GU, Cervix | read-out: Cell Count IC50, Hs 229.T, Lung, NSCLC | read-out: Cell Count IC50, Hs 852.T, Skin, Melanoma | read-out: Cell Count IC50, Hs 888.Sk, Bone, Osteosarcoma | read-out: Cell Count IC50, Hs 934.T, Skin, Melanoma | read-out: Cell Count IC50, IM-9, Hematopoietic, Myeloma | read-out: Cell Count IC50, JAR, Placenta | read-out: Cell Count IC50, KLE, Female GU, Uterus | read-out: Cell Count IC50, MX1, Hematopoietic, Leukemia | read-out: Cell Count IC50, PC-3, Prostate | read-out: Cell Count IC50, T24, Bladder | read-out: Cell Count IC50, VA-ES-BJ, Soft & Connective Tissue, Sarcoma | read-out: Cell Count IC50, Y79, Eve, Eye
0.01 to 0.1 µM: read-out: Cell Count IC50, DB, Hematopoietic, Lymphoma | read-out: Cell Count IC50, Hs 729, Soft & Connective Tissue, Sarcoma
